# What was measured:
# Assay in all cases: cells
# [1] = system: Caki-1; settings: Homo sapiens, CAKI-1, read-out: IC50 ARN22089
# Procedure: (§1) Cancer cell line viability assay was performed using a CellTiterGlo assay. Cells were cultured in their appropriate media and seeded in white multi-well plates. For the assays, cells were incubated with compound at 37°C overnight, and a CellTiterGlo assay was performed to quantify viable cells.
# [2] = system: SNU-1; settings: Homo sapiens, SNU1, read-out: IC50 ARN22089
# Procedure: as §1
# [3] = system: PANC-1; settings: Homo sapiens, PANC-1, read-out: IC50 ARN22089
# Procedure: as §1
# [4] = system: DU-145; settings: Homo sapiens, DU-145, read-out: IC50 ARN22089
# Procedure: as §1
# [5] = system: HCT116; settings: Homo sapiens, HCT-116, read-out: IC50 ARN22089
# Procedure: as §1
# [6] = system: A2058; settings: Homo sapiens, A2058, read-out: IC50 ARN22089
# Procedure: as §1
# [7] = system: HEC-1-A; settings: Homo sapiens, read-out: IC50 ARN22089
# Procedure: as §1
# [8] = system: NCI-H1563; settings: Homo sapiens, NCI-H1563, read-out: IC50 ARN22089
# Procedure: as §1
# [9] = system: Hep3B2.1-7; settings: read-out: IC50 ARN22089
# Procedure: as §1
# [10] = system: BEN; settings: read-out: IC50 ARN22089
# Procedure: as §1
# [11] = system: EFM-192A; settings: read-out: IC50 ARN22089
# Procedure: as §1
# [12] = system: SW948; settings: Homo sapiens, SW948, read-out: IC50 ARN22089
# Procedure: as §1
# [13] = system: DLD-1; settings: Homo sapiens, DLD-1, read-out: IC50 ARN22089
# Procedure: as §1
# [14] = system: MV4-11; settings: Homo sapiens, MV4-11, read-out: IC50 ARN22089
# Procedure: as §1
# [15] = system: HCC827; settings: Homo sapiens, HCC827, read-out: IC50 ARN22089
# Procedure: as §1
# [16] = system: NCI-N87; settings: Homo sapiens, NCI-N87, read-out: IC50 ARN22089
# Procedure: as §1
# [17] = system: SK.BR-3; settings: Homo sapiens, SK-BR-3, read-out: IC50 ARN22089
# Procedure: as §1
# [18] = system: P31/FUJ; settings: Homo sapiens, read-out: IC50 ARN22089
# Procedure: as §1
# [19] = system: OVK18; settings: OVK18, read-out: IC50 ARN22089
# Procedure: as §1
# [20] = system: SW620; settings: Homo sapiens, SW-620, read-out: IC50 ARN22089
# Procedure: as §1
# [21] = system: NCI-H1048; settings: Homo sapiens, NCI-H1048, read-out: IC50 ARN22089
# Procedure: as §1
# [22] = system: SK-LU-1; settings: Homo sapiens, SK-LU-1, read-out: IC50 ARN22089
# Procedure: as §1
# [23] = system: MOLM-13; settings: Homo sapiens, MOLM-13, read-out: IC50 ARN22089
# Procedure: as §1
# [24] = system: M07e; settings: M-07e, read-out: IC50 ARN22089
# Procedure: as §1
# [25] = system: A549; settings: Homo sapiens, A549, read-out: IC50 ARN22089
# Procedure: as §1
# [26] = system: SK-N-MC; settings: Homo sapiens, read-out: IC50 ARN22089
# Procedure: as §1
# [27] = system: NCI-H1838; settings: Homo sapiens, NCI-H1838, read-out: IC50 ARN22089
# Procedure: as §1
# [28] = system: MKN-45; settings: Homo sapiens, MKN-45, read-out: IC50 ARN22089
# Procedure: as §1
# [29] = system: SCLC-21H; settings: Homo sapiens, read-out: IC50 ARN22089
# Procedure: as §1
# [30] = system: OCI-AML5; settings: Homo sapiens, OCI-AML-5, read-out: IC50 ARN22089
# Procedure: as §1
# [31] = system: LOU-NH91; settings: LOU-NH91, read-out: IC50 ARN22089
# Procedure: as §1
# [32] = system: NCI-H2009; settings: Homo sapiens, NCI-H2009, read-out: IC50 ARN22089
# Procedure: as §1
# [33] = system: HCC38; settings: Homo sapiens, HCC38, read-out: IC50 ARN22089
# Procedure: as §1
# [34] = system: J82; settings: Homo sapiens, J82, read-out: IC50 ARN22089
# Procedure: as §1
# [35] = system: OV56; settings: OV56, read-out: IC50 ARN22089
# Procedure: as §1
# [36] = system: RL95-2; settings: Homo sapiens, RL95-2, read-out: IC50 ARN22089
# Procedure: as §1
# [37] = system: SK-MEL-3; settings: Homo sapiens, SK-MEL3, read-out: IC50 ARN22089
# Procedure: as §1
# [38] = system: NCI-H1581; settings: Homo sapiens, NCI-H1581, read-out: IC50 ARN22089
# Procedure: as §1
# [39] = system: SNU840; settings: SNU-840, read-out: IC50 ARN22089
# Procedure: as §1
# [40] = system: NCI-H292; settings: Homo sapiens, NCI-H292, read-out: IC50 ARN22089
# Procedure: as §1
# [41] = system: RERF-LC-Ad2; settings: RERF-LC-Ad2, read-out: IC50 ARN22089
# Procedure: as §1
smiles,measurement,setting,value
"CN(C)c1cccc(Nc2cc(-c3ccccc3)nc(C3CCNCC3)n2)c1 [ARN22089, N1,N1-dimethyl-N3-(6-phenyl-2-(piperidin-4-yl)pyrimidin-4-yl)benzene-1,3-diamine]",IC50,[1],11 µM
same,IC50,[2],7.8 µM
same,IC50,[3],11 µM
same,IC50,[4],11 µM
same,IC50,[5],5.2 µM
same,IC50,[6],3.7 µM
same,IC50,[7],9.5 µM
same,IC50,[8],16 µM
same,IC50,[9],3.6 µM
same,IC50,[10],12 µM
same,IC50,[11],14 µM
same,IC50,[12],8.3 µM
same,IC50,[13],5 µM
same,IC50,[14],4.4 µM
same,IC50,[15],11 µM
same,IC50,[16],5.7 µM
same,IC50,[17],6.7 µM
same,IC50,[18],14 µM
same,IC50,[19],7.5 µM
same,IC50,[20],5.9 µM
same,IC50,[21],22 µM
same,IC50,[22],7.8 µM
same,IC50,[23],13 µM
same,IC50,[24],11 µM
same,IC50,[25],11 µM
same,IC50,[26],4.7 µM
same,IC50,[27],17 µM
same,IC50,[28],4.1 µM
same,IC50,[29],5.4 µM
same,IC50,[30],15 µM
same,IC50,[31],29 µM
same,IC50,[32],15 µM
same,IC50,[33],10 µM
same,IC50,[34],5.9 µM
same,IC50,[35],13 µM
same,IC50,[36],5.7 µM
same,IC50,[37],3.3 µM
same,IC50,[38],24 µM
same,IC50,[39],6.5 µM
same,IC50,[40],12 µM
same,IC50,[41],9.2 µM

# Reference: paper PMC9127750, “Structure-based design of CDC42 effector interaction inhibitors for the treatment of cancer” (Cell reports, 2022)
